Experimental data reported in ChEMBL document CHEMBL6134896, “Recent Advances in Augmenting the Therapeutic Efficacy of Peptide-Drug Conjugates” (2025).

Legend:
OVCAR-3 = test: Growth inhibition of human OVCAR-3 cells incubated for 3 days by CellTiter-Glo luminescent assay; format: functional; details: OVCAR-3, 72 h, time 3 day
SK-OV-3 = test: Growth inhibition of human SK-OV-3 cells incubated for 3 days by CellTiter-Glo luminescent assay; format: functional; details: SK-OV-3, 72 h, time 3 day

GI50 (OVCAR-3): 4 nM
GI50 (SK-OV-3): 453 nM
SMILES: CC[C@H](C)[C@@H]([C@@H](CC(=O)N1CCC[C@H]1[C@H](OC)[C@@H](C)CC(=O)N[C@H](C)[C@@H](C)c1ccccc1)OC)N(C)C(=O)[C@@H](NC(=O)[C@H](C(C)C)N(C)C(=O)OCc1ccc(NC(=O)[C@H](CCCNC(N)=O)NC(=O)[C@@H](NC(=O)CCCCCN2C(=O)CC(SCC[C@@H](NC(=O)[C@H](Cc3ccc(O)cc3)NC(=O)[C@H](CO)NC(=O)[C@H](Cc3c[nH]c4ccccc34)NC(=O)[C@H](Cc3cnc[nH]3)NC(=O)[C@@H]3CCC(=O)N3)C(=O)N[C@@H](CC(C)C)C(=O)N[C@@H](CCCNC(=N)N)C(=O)N3CCC[C@H]3C(=O)NCC(N)=O)C2=O)C(C)C)cc1)C(C)C (some centres not stated)
